This assay has as its target PD-1/PD-L1 (Homo sapiens (Human), UniProt Q9NZQ7). Briefly: PD-1/PD-L1 binding assay (HTRF). As for the experimental part: The assays were conducted in a standard black 384-well polystyrene plate with a final volume of 20 μL. Inhibitors were first serially diluted in DMSO and then added to the plate wells before the addition of other reaction components. The final concentration of DMSO in the assay was 1%. The assays were carried out at 25° C. in the PBS buffer (pH 7.4) with 0.05% Tween-20 and 0.1% BSA. Recombinant human PD-L1 protein (19-238) with a His-tag at the C-terminus was purchased from AcroBiosystems (PD1-H5229). Recombinant human PD-1 protein (25-167) with Fc tag at the C-terminus was also purchased from AcroBiosystems (PD1-H5257). PD-L1 and PD-1 proteins were diluted in the assay buffer and 10 μL was added to the plate well. Plates were centrifuged and proteins were preincubated with inhibitors for 40 minutes. The incubation was followed by the addition of 10 μL of HTRF detection buffer supplemented with Europium cryptate-labeled anti-human IgG (PerkinElmer-AD0212) specific for Fc and anti-His antibody conjugated to SureLight®-Allophycocyanin (APC, PerkinElmer-AD0059H). After centrifugation, the plate was incubated at 25° C. for 60 min. before reading on a PHERAstar FS plate reader (665 nm/620 nm ratio). Final concentrations in the assay were […], 10 nM PD-L1, 1 nM europium anti-human IgG and 20 nM anti-His-Allophycocyanin. IC50 determination was performed by fitting the curve of percent control activity versus the log of the inhibitor concentration using the GraphPad Prism 5.0 software.

Structures are written as SMILES.

Chain of PD-1/PD-L1 (Q9NZQ7 19-238): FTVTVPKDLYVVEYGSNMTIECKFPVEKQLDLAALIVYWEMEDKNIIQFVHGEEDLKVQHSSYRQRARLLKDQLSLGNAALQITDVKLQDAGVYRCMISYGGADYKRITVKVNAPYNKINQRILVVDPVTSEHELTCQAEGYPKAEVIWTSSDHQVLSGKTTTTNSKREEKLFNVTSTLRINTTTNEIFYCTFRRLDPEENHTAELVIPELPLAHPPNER

With `CCN1CCc2c(nc(C(=O)Nc3cccc(-c4cccc(NC(=O)c5nc6c(n5C)CCN(CC[C@H]5CC[C@H](C(=O)O)CC5)C6)c4C#N)c3Cl)n2C)C1` [Compound 154, trans-4-(2-(2-((2′-chloro-2-cyano-3′-(5-ethyl-1-methyl-4,5,6,7-tetrahydro-1H-imidazo[4,5-c]pyridine-2-carboxamido)-[1,1′-biphenyl]-3-yl)carbamoyl)-1-methyl-1,4,6,7-tetrahydro-5H-imidazo[4,5-c]pyridin-5-yl)ethyl)cyclohexane-1-carboxylic acid], the IC50 (as a rule, the concentration needed to halve the response being measured) was at most 10 nM.

`CN1CCc2c(nc(C(=O)Nc3cccc(-c4cccc(NC(=O)c5nc6c(n5C)CCN(CCO)C6)c4Cl)c3C#N)n2C)C1` [Example 38, N-(2-chloro-2′-cyano-3′-(1,5-dimethyl-4,5,6,7-tetrahydro-1H-imidazo[4,5-c]pyridine-2-carboxamido)biphenyl-3-yl)-5-(2-hydroxyethyl)-1-methyl-4,5,6,7-tetrahydro-1H-imidazo[4,5-c]pyridine-2-carboxamide]: the IC50 is at most 10 nM.

Compound `Cc1c(NC(=O)c2nc3c(n2C)CCN(CCc2ccc(C(=O)O)cc2)C3)cccc1-c1cccc(NC(=O)c2nc3c(n2C)CCN(C)C3)c1Cl` [Example 101, 4-(2-(2-((2′-chloro-3′-(1,5-dimethyl-4,5,6,7-tetrahydro-1H-imidazo[4,5-c]pyridine-2-carboxamido)-2-methyl-[1,1′-biphenyl]-3-yl)carbamoyl)-1-methyl-1,4,6,7-tetrahydro-5H-imidazo[4,5-c]pyridin-5-yl)ethyl)benzoic acid] yielded an IC50 of at most 10 nM.

`Cc1c(NC(=O)c2nc3c(n2C)CCN(C2CCOCC2)C3)cccc1-c1cccc(NC(=O)c2nc3c(n2C)CCN(CC[C@H]2CC[C@H](C(=O)O)CC2)C3)c1Cl` [Example 122, trans-4-(2-(2-((2-chloro-2′-methyl-3′-(1-methyl-5-(tetrahydro-2H-pyran-4-yl)-4,5,6,7-tetrahydro-1H-imidazo[4,5-c]pyridine-2-carboxamido)-[1,1′-biphenyl]-3-yl)carbamoyl)-1-methyl-1,4,6,7-tetrahydro-5H-imidazo[4,5-c]pyridin-5-yl)ethyl)cyclohexane-1-carboxylic acid] showed an IC50 of at most 10 nM.

Take `CC(C)N1CCc2c(nc(C(=O)Nc3cccc(-c4cccc(NC(=O)c5nc6c(n5C)CCN(C[C@H]5CC[C@@H](C(=O)O)CC5)C6)c4Cl)c3Cl)n2C)C1` [Example 72, cis-4-((2-((2,2′-dichloro-3′-(5-isopropyl-1-methyl-4,5,6,7-tetrahydro-1H-imidazo[4,5-c]pyridine-2-carboxamido)-[1,1′-biphenyl]-3-yl)carbamoyl)-1-methyl-1,4,6,7-tetrahydro-5H-imidazo[4,5-c]pyridin-5-yl)methyl)cyclohexane-1-carboxylic acid]: the IC50 is at most 10 nM.

Compound `Cc1c(NC(=O)c2nc3c(n2C)CCNC3)cccc1-c1cccc(NC(=O)c2nc3c(n2C)CCN(CC[C@H]2CC[C@H](C(=O)O)CC2)C3)c1Cl` [Example 126, trans-4-(2-(2-((2-chloro-2′-methyl-3′-(1-methyl-4,5,6,7-tetrahydro-1H-imidazo[4,5-c]pyridine-2-carboxamido)-[1,1′-biphenyl]-3-yl)carbamoyl)-1-methyl-1,4,6,7-tetrahydro-5H-imidazo[4,5-c]pyridin-5-yl)ethyl)cyclohexane-1-carboxylic acid] came in with an IC50 of at most 10 nM.

On to `CN1CCc2c(nc(C(=O)Nc3cccc(-c4cccc(NC(=O)c5nc6c(n5C)CCN(CCC5CCC(C(=O)O)CC5)C6)c4Cl)c3Cl)n2C)C1` (stereo not shown) [Compound 77-1, 4-(2-(2-((2,2′-dichloro-3′-(1,5-dimethyl-4,5,6,7-tetrahydro-1H-imidazo[4,5-c]pyridine-2-carboxamido)-[1,1′-biphenyl]-3-yl)carbamoyl)-1-methyl-1,4,6,7-tetrahydro-5H-imidazo[4,5-c]pyridin-5-yl)ethyl)cyclohexane-1-carboxylic acid], for which the IC50 was at most 10 nM.

`CCN1CCc2c(nc(C(=O)Nc3cccc(-c4cccc(NC(=O)c5nc6c(n5C)CCN(CC[C@H]5CC[C@H](C(=O)O)CC5)C6)c4Cl)c3C)n2C)C1` [Example 127, trans-4-(2-(2-((2-chloro-3′-(5-ethyl-1-methyl-4,5,6,7-tetrahydro-1H-imidazo[4,5-c]pyridine-2-carboxamido)-2′-methyl-[1,1′-biphenyl]-3-yl)carbamoyl)-1-methyl-1,4,6,7-tetrahydro-5H-imidazo[4,5-c]pyridin-5-yl)ethyl)cyclohexane-1-carboxylic acid] returned an IC50 of at most 10 nM.

Regarding `CCN(C)CCC(=O)N1Cc2nc(-c3cccc(-c4cccc(NC(=O)c5nc6c(n5C)CCN(C5CCC(C)(C(=O)O)CC5)C6)c4Cl)c3Cl)oc2C1` (stereo not shown) [Compound 174, 4-(2-((2,2′-dichloro-3′-(5-(3-(ethyl(methyl)amino)propanoyl)-5,6-dihydro-4H-pyrrolo[3,4-d]oxazol-2-yl)-[1,1′-biphenyl]-3-yl)carbamoyl)-1-methyl-1,4,6,7-tetrahydro-5H-imidazo[4,5-c]pyridin-5-yl)-1-methylcyclohexane-1-carboxylic acid], the IC50 is at most 10 nM.

For the compound `CCN1CCc2c(nc(C(=O)Nc3cccc(-c4cccc(NC(=O)c5nc6c(n5C)CCN(CC[C@H]5CC[C@H](C(=O)O)CC5)C6)c4Cl)c3C#N)n2C)C1` [Compound 151, trans-4-(2-(2-((2-chloro-2′-cyano-3′-(5-ethyl-1-methyl-4,5,6,7-tetrahydro-1H-imidazo[4,5-c]pyridine-2-carboxamido)-[1,1′-biphenyl]-3-yl)carbamoyl)-1-methyl-1,4,6,7-tetrahydro-5H-imidazo[4,5-c]pyridin-5-yl)ethyl)cyclohexane-1-carboxylic acid], the IC50 is at most 10 nM.

`CN1CCc2c(nc(C(=O)Nc3cccc(-c4cccc(NC(=O)c5nc6c(n5C)CCN(CC57CCC(C(=O)O)(CC5)CC7)C6)c4Cl)c3Cl)n2C)C1` [Example 81, 4-((2-((2,2′-dichloro-3′-(1,5-dimethyl-4,5,6,7-tetrahydro-1H-imidazo[4,5-c]pyridine-2-carboxamido)-[1,1′-biphenyl]-3-yl)carbamoyl)-1-methyl-1,4,6,7-tetrahydro-5H-imidazo[4,5-c]pyridin-5-yl)methyl)bicyclo[2.2.2]octane-1-carboxylic acid] came in with an IC50 of at most 10 nM.

Regarding `Cc1c(NC(=O)c2nc3c(n2C)CCN(CC24CCC(C(=O)O)(CC2)C4)C3)cccc1-c1cccc(NC(=O)c2nc3c(n2C)CCN(C)C3)c1Cl` [Example 102, 4-((2-((2′-chloro-3′-(1,5-dimethyl-4,5,6,7-tetrahydro-1H-imidazo[4,5-c]pyridine-2-carboxamido)-2-methyl-[1,1′-biphenyl]-3-yl)carbamoyl)-1-methyl-1,4,6,7-tetrahydro-5H-imidazo[4,5-c]pyridin-5-yl)methyl)bicyclo[2.2.1]heptane-1-carboxylic acid], the IC50 was at most 10 nM.

As for `Cn1c(C(=O)Nc2cccc(-c3cccc(NC(=O)c4nc5c(n4C)CCN(C4CCC(O)CC4)C5)c3Cl)c2Cl)nc2c1CCN(C[C@H]1CC[C@H](C(=O)O)CC1)C2` (stereo partly drawn) [144 (compound 144-1), trans-4-((2-((2,2′-dichloro-3′-(5-(4-hydroxycyclohexyl)-1-methyl-4,5,6,7-tetrahydro-1H-imidazo[4,5-c]pyridine-2-carboxamido)-[1,1′-biphenyl]-3-yl)carbamoyl)-1-methyl-1,4,6,7-tetrahydro-5H-imidazo[4,5-c]pyridin-5-yl)methyl)cyclohexane-1-carboxylic acid], the IC50 was at most 10 nM.

Turning to `CCC1(C(=O)O)CCC(N2CCc3c(nc(C(=O)Nc4cccc(-c5cccc(NC(=O)c6nc7c(n6C)CCN(C6CCOCC6)C7)c5Cl)c4Cl)n3C)C2)CC1` (stereo not shown) [Example 99, 4-(2-((2,2′-dichloro-3′-(1-methyl-5-(tetrahydro-2H-pyran-4-yl)-4,5,6,7-tetrahydro-1H-imidazo[4,5-c]pyridine-2-carboxamido)-[1,1′-biphenyl]-3-yl)carbamoyl)-1-methyl-1,4,6,7-tetrahydro-5H-imidazo[4,5-c]pyridin-5-yl)-1-ethylcyclohexane-1-carboxylic acid], the IC50 is at most 10 nM.

As to `CC(C)N1CCc2c(nc(C(=O)Nc3cccc(-c4cccc(NC(=O)c5nc6c(n5C)CCN(CC[C@H]5CC[C@H](C(=O)O)CC5)C6)c4Cl)c3C#N)n2C)C1` [Compound 152, trans-4-(2-(2-((2-chloro-2′-cyano-3′-(5-isopropyl-1-methyl-4,5,6,7-tetrahydro-1H-imidazo[4,5-c]pyridine-2-carboxamido)-[1,1′-biphenyl]-3-yl)carbamoyl)-1-methyl-1,4,6,7-tetrahydro-5H-imidazo[4,5-c]pyridin-5-yl)ethyl)cyclohexane-1-carboxylic acid], the IC50 is at most 10 nM.

Compound `Cn1c(C(=O)Nc2cccc(-c3cccc(NC(=O)c4nc5c(n4C)CCN(C[C@H]4CC[C@@H](C(=O)O)CC4)C5)c3Cl)c2Cl)nc2c1CCN(CC1CC1)C2` [Example 71, cis-4-((2-((2,2′-dichloro-3′-(5-(cyclopropylmethyl)-1-methyl-4,5,6,7-tetrahydro-1H-imidazo[4,5-c]pyridine-2-carboxamido)-[1,1′-biphenyl]-3-yl)carbamoyl)-1-methyl-1,4,6,7-tetrahydro-5H-imidazo[4,5-c]pyridin-5-yl)methyl)cyclohexane-1-carboxylic acid] gave a 50% inhibitory concentration (IC50) of at most 10 nM.

Source of the values: patent US10806785B2, “Immunomodulator compounds and methods of use” (Incyte Corporation, priority 2016, dated 2020).
